{"source": "patent US4912092A", "about": "“Methods for increasing extracellular adenosine and for stabilizing mast cells” (The Regents of the University of California, priority 1987, dated 1990)", "key": {"AMP deaminase": {"molecular_target": "T1, AMP deaminase (Homo sapiens, UniProt Q01433)", "T1 construct": "endogenous in cells", "T1 sequence (Q01433 1-825)": "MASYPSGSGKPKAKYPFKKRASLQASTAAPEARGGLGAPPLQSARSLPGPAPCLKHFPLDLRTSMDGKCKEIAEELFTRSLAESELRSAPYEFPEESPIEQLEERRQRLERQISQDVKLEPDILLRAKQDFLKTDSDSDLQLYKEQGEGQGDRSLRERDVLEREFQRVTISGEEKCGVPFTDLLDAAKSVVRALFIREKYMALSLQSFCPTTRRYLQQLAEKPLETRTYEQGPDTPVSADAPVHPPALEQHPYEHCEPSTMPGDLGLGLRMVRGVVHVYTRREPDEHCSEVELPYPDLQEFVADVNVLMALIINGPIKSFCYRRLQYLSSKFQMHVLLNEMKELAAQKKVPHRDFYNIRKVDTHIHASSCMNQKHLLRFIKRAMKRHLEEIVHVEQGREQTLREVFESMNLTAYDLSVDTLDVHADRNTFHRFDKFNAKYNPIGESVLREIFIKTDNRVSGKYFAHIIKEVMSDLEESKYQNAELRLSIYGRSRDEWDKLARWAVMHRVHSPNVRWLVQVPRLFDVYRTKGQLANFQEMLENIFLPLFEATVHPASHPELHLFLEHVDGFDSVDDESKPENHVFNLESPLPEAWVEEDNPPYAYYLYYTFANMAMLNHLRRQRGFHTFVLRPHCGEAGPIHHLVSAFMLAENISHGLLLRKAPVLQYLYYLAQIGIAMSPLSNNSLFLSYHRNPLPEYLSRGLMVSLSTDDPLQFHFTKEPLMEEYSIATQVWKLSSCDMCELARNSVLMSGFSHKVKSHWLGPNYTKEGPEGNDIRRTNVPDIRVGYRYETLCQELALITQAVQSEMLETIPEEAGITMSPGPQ", "assay": "Inhibition of AMP deaminase (14C-AMP to 14C-IMP conversion)", "format": "biochemical", "protocol": "The phosphorylated forms are referred to as AICA ribotide and ribavirin monophosphate, respectively. Using 200 μM of each ribotide, AMP deaminase was inhibited 38% and 54%, respectively."}, "[1]": {"system": "granulocytes and endothelial cells", "assay": "Granulocyte/endothelial cell interaction, intravital microscopy of mesentery microvessels", "format": "in vivo, rat", "conditions": "superfusion with 20 μM, approximately 2 μM in the vessel", "protocol": "The parameter measured was the fracture stress between the two cell types.\nThese studies were performed by intravital microscopy filming of granulocytes in rat mesentary microvessels. The rolling velocity of granulocytes compared to the streaming velocity of red cells was calculated before and after the administration of adenosine."}, "[2]": {"system": "Mouse bone marrow-derived mast cells", "format": "cell-based", "protocol": "By preventing mast cell degranulation, it is possible to prevent or control a patient's allergic response. Bone marrow obtained from Balb/C mice femurs was cultured in a 1:1 mixture of Razin media and conditioned media, produced by co-culturing splenocytes from C57B1/6J and C3H mice in the presence of Concanavalin A as described by Razin et al. in the Proc. Natl. Acad. Sci. USA 28: 2559-2561, 1981. After weekly passaging and at least 15 days in tissue culture, the resulting cells were 90% pure mast cells and 95% viable as assessed by Trypan blue exclusion. Cells exposed to ribavirin in culture were washed three times prior to use in experiments. Parallel cultures of cells grown in media alone were used as controls for pharmacologically manipulated mast cells. Cell growth was assessed by counting cells at particular time points and comparing actual numbers of ribavirin-treated cells to numbers of cells grown in media alone.\nβ-hexosaminidase was chosen as a representative granule-associated, preformed mast cell mediator because it is easily quantitated, and its release nearly identically parallels that of histamine. Mouse bone marrow-derived mast cells were centrifuged at 200×g for 5 minutes, washed three times in Tyrode's buffer lacking divalent cations, sensitized for 30 minutes at 37° C. with anti-DNP ([…]) IgE (1 μg/10^6 cells) and challenged with either DNP-BSA antigen (175 ng/3×10^5 cells) or A23187 (10 μg/ml/3×10^5 cells) in 400 μl of complete Tyrode's buffer for 10 minutes at 37° C. Reaction mixtures were centrifuged at 200×g for 10 minutes, and supernatant and pellet β-hexosaminidase concentrations were assayed by the hydrolysis of p-nitrophenyl-β-D-glucosamide as described in Schwartz et al. in J. Immunol. […] Spontaneous β-hexosaminidase release was determined in unchallenged cells. The net % of β-hexosaminidase released is defined as follows: [formula] where [β-hex] is β-hexosaminidase and super. is supernatant. When exogenous adenosine was present in reaction mixtures, it was added simultaneously with the secretagogue."}, "[3]": {"system": "HPRT- neuroblastoma cells", "assay": "Adenosine excretion by ionophore-stimulated HPRT- neuroblastoma cells", "format": "cell-based", "conditions": "pretreatment", "protocol": "(§1) The history and properties of the cell line have been described by Hershfield et al. in Science, Vol. 197, p. 1284, 1977.\n(§2) Catabolism of cellular ATP stores was stimulated by adding either 2-deoxyglucose or a calcium ionophore. At various times, the amount of adenosine released by the cells into the supernatant, or the amount of nucleotides remaining in the cells, was determined by mixing 30 μl of chilled 4.4N perchloric acid with 300 μl of supernatants, or by adding 300 μl of chilled 0.4N perchloric acid to the cells collected as pellets and centrifuging the mixtures at 500×G for 10 minutes at 4° C. […] 1245, 1975. Following centrifugation at 1500×G for three minutes at 4° C., the aqueous phase is removed and frozen at -20° C. until assayed for adenosine, inosine, or for nucleotides. Adenosine was evaluated isocratically on a C-18 microBondapak reverse phase column equilibrated with 4 millimolar potassium phosphate, (pH 3.4):acetonitrile 60% in water (95:5 v/v) buffer. Adenosine elutes at 8-10 minutes, and its identity was confirmed by its sensitivity to adenosine deaminase and by spiking with adenosine standards. The extracted samples from the cell pellet were analyzed for nucleotides by high pressure liquid chromatography on a Whatman Partisil-10 (SAX) column equilibrated with 10 millimolar potassium phosphate, pH 3.78, and eluted with a linear gradient to a 0.25 molar potassium phosphate, 0.5 molar KCl, pH 3.45. […] Peaks were quantitated by comparison with high pressure liquid chromatography analysis of suitable standards.\nTo induce ATP catabolism, the growth medium was replaced by medium containing micromolar amounts of the calcium ionophore A23187 and 1.0 μM deoxycoformycin."}, "[4]": {"system": "human splenic lymphoblast cell line (WI-L2)", "assay": "Adenosine excretion by human lymphoblasts during ATP breakdown (2-deoxyglucose)", "format": "cell-based", "conditions": "three-hour preincubation and four-hour incubation during 2-deoxyglucose treatment (FIGS. 8, 9)", "protocol": "as §1, §2\nCells were grown to about 0.5×10^6 cells/ml (mid-log phase) in FIG. 2 and to about 1.0×10^6 cells/ml (early stationary phase) in FIGS. 7-9."}}}
{"compound": "NC(=O)c1ncn([C@@H]2O[C@H](COP(=O)(O)O)[C@@H](O)[C@H]2O)c1N", "note": "[AICA ribotide]", "values": [{"measurement": "inhibition at 200 µM", "setting": "AMP deaminase; read-out: AMP deaminase inhibited", "value": 38, "unit": "%"}]}
{"compound": "Nc1ncnc2c1ncn2[C@@H]1O[C@H](CO)[C@@H](O)[C@H]1O", "note": "[Adenosine, 9-β-D-ribofuranosyladenine]", "values": [{"measurement": "decrease of fracture stress between granulocytes and endothelial cells", "setting": "[1]", "value": "by a factor of two"}, {"measurement": "rolling velocity of granulocytes in microvessels", "setting": "[1]", "value": "twofold increase"}]}
{"compound": "NC(=O)c1ncn([C@@H]2O[C@H](CO)[C@@H](O)[C@H]2O)n1", "note": "[ribavirin, 1-β-D-ribofuranosyl-1H-1,2,4-triazole-3-carboxamide]", "values": [{"measurement": "mast cell mediator content and cell viability", "setting": "[2]", "value": "did not alter"}, {"measurement": "preformed mediator release", "setting": "[2]; 1 μM for six days", "value": "inhibits mediator release significantly"}, {"measurement": "β-hexosaminidase release", "setting": "[2]; 10 μM added at the time of mast cell stimulation", "value": "does not affect"}, {"measurement": "net β-hexosaminidase release versus controls", "setting": "[2]; 1, 10, or 20 μM for six days, A23187 challenge (FIG. 11)", "value": "significantly less"}, {"measurement": "β-hexosaminidase release versus cells cultured in media alone", "setting": "[2]; three to seven days in 10 μM, washed, A23187 challenge (FIG. 10), p<0.05", "value": "marked attenuation"}, {"measurement": "spontaneous release of β-hexosaminidase versus control cells", "setting": "[2]; unchallenged cells", "value": "similar"}, {"measurement": "correction of the twofold lower adenosine secretion of HPRT-deficient cells", "setting": "[3]", "value": "can be corrected by pretreatment"}, {"measurement": "adenosine release from lymphoblasts", "setting": "[4]", "value": "increased adenosine release"}]}
{"compound": "NC(=O)c1ncn([C@@H]2O[C@H](COP(=O)(O)O)[C@@H](O)[C@H]2O)n1", "note": "[ribavirin monophosphate]", "values": [{"measurement": "AMP deaminase inhibited", "setting": "AMP deaminase; 200 μM ribotide, cytoplasmic lysates from a human lymphoblast line", "value": 54, "unit": "%"}]}
